Assay results: US20250171495A1, “MUTLI-TARGETED SERINE PROTEASE INHIBITORS FOR TREATMENT OF CANCER AND VIRAL INFECTION” (Washington University, priority 2023, published 2025)
Read-outs that look alike come from different tables or passages of the source.

Assays:
Type in all cases: biochemical
[1] = molecular target: T1, matriptase (Homo sapiens, UniProt Q9Y5Y6); experiment: Fluorogenic kinetic enzyme inhibitor assay, matriptase
T1 construct: purchased R&D Systems 3946-SEB-010
T1 sequence (Q9Y5Y6 615-855 limits assumed): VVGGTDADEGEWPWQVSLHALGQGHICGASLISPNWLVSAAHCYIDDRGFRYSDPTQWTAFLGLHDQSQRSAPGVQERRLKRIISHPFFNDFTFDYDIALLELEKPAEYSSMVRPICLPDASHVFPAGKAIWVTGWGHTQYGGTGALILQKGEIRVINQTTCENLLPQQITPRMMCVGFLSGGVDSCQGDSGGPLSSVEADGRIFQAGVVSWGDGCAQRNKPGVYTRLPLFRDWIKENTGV

[2] = molecular target: T2, hepsin (Homo sapiens, UniProt P05981); experiment: Fluorogenic kinetic enzyme inhibitor assay, hepsin
T2 construct: purchased R&D Systems 4776-SE-010
T2 sequence (P05981 163-417 limits assumed): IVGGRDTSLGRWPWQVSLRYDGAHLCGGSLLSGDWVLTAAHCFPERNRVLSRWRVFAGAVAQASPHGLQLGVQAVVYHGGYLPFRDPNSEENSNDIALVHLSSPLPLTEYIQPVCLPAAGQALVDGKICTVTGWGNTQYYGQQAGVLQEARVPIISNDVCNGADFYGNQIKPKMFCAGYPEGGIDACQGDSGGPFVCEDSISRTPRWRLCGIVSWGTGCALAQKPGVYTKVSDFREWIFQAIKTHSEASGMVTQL
T2 sequence (P05981 1-162 partner limits assumed): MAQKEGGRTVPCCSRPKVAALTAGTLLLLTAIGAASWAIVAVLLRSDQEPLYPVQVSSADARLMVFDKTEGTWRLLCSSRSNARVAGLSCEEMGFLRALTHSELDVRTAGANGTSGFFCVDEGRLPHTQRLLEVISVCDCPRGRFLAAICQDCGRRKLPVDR

[3] = molecular target: T3, HGFA (Homo sapiens, UniProt Q04756); experiment: Fluorogenic kinetic enzyme inhibitor assay, HGFA
T3 construct: purchased R&D Systems 1514-SE-010
T3 sequence (Q04756 408-655 limits assumed): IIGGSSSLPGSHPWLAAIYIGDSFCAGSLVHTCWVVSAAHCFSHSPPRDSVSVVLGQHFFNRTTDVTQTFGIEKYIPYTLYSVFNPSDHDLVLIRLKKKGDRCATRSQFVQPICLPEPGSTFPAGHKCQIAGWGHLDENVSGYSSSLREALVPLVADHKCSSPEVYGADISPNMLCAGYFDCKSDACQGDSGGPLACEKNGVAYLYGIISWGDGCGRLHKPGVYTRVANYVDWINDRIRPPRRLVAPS
T3 sequence (Q04756 373-407 partner limits assumed): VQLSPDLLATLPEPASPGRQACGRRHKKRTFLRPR

[4] = molecular target: TMPRSS2 (Homo sapiens, UniProt O15393); experiment: Fluorogenic kinetic enzyme inhibitor assay, TMPRSS2; set-up: purchased Cusabio Technology CSB-YP023924HU; conditions: read-out: TMPRSS2 IC50
TMPRSS2, sequence (O15393 106-492 limits assumed): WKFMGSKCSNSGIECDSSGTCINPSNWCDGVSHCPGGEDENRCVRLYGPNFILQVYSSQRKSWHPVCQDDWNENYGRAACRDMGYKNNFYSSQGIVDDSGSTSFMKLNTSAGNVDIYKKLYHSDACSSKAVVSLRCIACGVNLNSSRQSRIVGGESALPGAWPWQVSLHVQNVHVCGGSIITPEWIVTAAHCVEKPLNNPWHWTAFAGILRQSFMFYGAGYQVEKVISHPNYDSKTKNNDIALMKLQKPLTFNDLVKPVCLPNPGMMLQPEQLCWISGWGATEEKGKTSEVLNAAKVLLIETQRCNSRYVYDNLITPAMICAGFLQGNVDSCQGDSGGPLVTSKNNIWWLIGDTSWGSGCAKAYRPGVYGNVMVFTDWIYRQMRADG

Q: How did the IC50 [1] turn out when CCC(C)[C@H](NC(C)=O)C(=O)N[C@@H](CCC(N)=O)C(=O)N[C@H](C(=O)N[C@@H](CCCNC(=N)N)C(=O)c1nc2ccccc2s1)C(C)C (stereo partly drawn) [MM3180-2, N-[(S)-2-methyl-1-[N-(S)-1-[(1,3-benzothiazol-2-yl)carbonyl]-4-guanidinobutylcarbamoyl]propyl](S)-2-[(2S)-2-acetylamino-3-methylvalerylamino]glutaramide] was run?
A: Its IC50 is 0.761 nM.

Q: And the IC50 ([2]; read-out: Hepsin IC50)?
A: The IC50 was 0.106 nM.

Q: And the IC50 ([3]; read-out: HGFA IC50)?
A: Its IC50 is 799 nM.

Q: What about the IC50 [4] of the same compound?
A: The IC50 was 0.031 nM.

Q: For CC(=O)N1CCC[C@H]1C(=O)N[C@@H](CO)C(=O)N[C@@H](CCCCN)C(=O)N[C@@H](CCCNC(=N)N)C(=O)c1nc2ccccc2s1 [MM3194A, N-[(S)-2-hydroxy-1-[N-(S)-5-amino-1-[N-(S)-1-[(1,3-benzothiazol-2-yl)carbonyl]-4-guanidinobutylcarbamoyl]pentylcarbamoy1]ethyl]-(S)-1-acetyl-2-pyrrolidinecarboxamide], which IC50 [1] is on record?
A: The IC50 was 0.293 nM.

Q: What about the IC50 [2] of the same compound?
A: The IC50 was 2.43 nM.

Q: And the IC50 [3]?
A: The IC50 was > 20000 nM.

Q: What about the IC50 [4] of the same compound?
A: Its IC50 is 0.286 nM.

Q: Which IC50 [1] does the source give for CCC(C)[C@H](NC(C)=O)C(=O)N[C@@H](CO)C(=O)N[C@@H](Cc1ccccc1)C(=O)N[C@H](CCCNC(=N)N)C(=O)c1nc2ccccc2s1 (stereo partly drawn) [MM4009-1, N-[(S)-2-hydroxy-1-[N-(S)-1-[N-(R)-1-[(1,3-benzothiazol-2-yl)carbonyl]-4-guanidinobutylcarbamoyl]-2-phenylethylcarbamoyl]ethyl](2S)-2-acetylamino-3-methylvaleramide] here?
A: Its IC50 is 18.4 nM.

Q: And the IC50 ([2]; read-out: Hepsin IC50)?
A: The IC50 was 2.08 nM.

Q: What about the IC50 ([3]; read-out: HGFA IC50) of the same compound?
A: The IC50 was 1340 nM.

Q: Which results are given for CCC(C)[C@H](NC(C)=O)C(=O)N[C@@H](CO)C(=O)N[C@@H](Cc1ccccc1)C(=O)N[C@@H](CCCNC(=N)N)C(=O)c1nc2ccccc2s1 (stereo partly drawn) [MM4009-2, N-[(S)-2-hydroxy-1-[N-(S)-1-[N-(S)-1-[(1,3-benzothiazol-2-yl)carbonyl]-4-guanidinobutylcarbamoyl]-2-phenylethylcarbamoyl]ethyl] (2S)-2-acetylamino-3-methylvaleramide]?
A: IC50 [1]: 2.17 nM; IC50 ([2]; read-out: Hepsin IC50): 1.05 nM; IC50 ([3]; read-out: HGFA IC50): 126 nM; IC50 [4]: 0.067 nM

Q: With CCC(C)[C@H](NC(C)=O)C(=O)N[C@H](C(=O)N[C@@H](Cc1ccccc1)C(=O)N[C@@H](CCCNC(=N)N)C(=O)c1nc2ccccc2s1)C(C)O (stereo partly drawn) [MM4028-2, N-[(1S)-2-hydroxy-1-[N-(S)-1-[N-(S)-1-[(1,3-benzothiazol-2-yl)carbonyl]-4-guanidinobutylcarbamoyl]-2-phenylethylcarbamoyl]propyl](2S)-2-acetylamino-3-methylvaleramide] as the compound, how does the IC50 [1] read?
A: The IC50 was 4.71 nM.

Q: And the IC50 ([2]; read-out: Hepsin IC50)?
A: The IC50 was 0.863 nM.

Q: What about the IC50 ([3]; read-out: HGFA IC50) of the same compound?
A: Its IC50 is 182 nM.

Q: And the IC50 [4]?
A: Its IC50 is 0.064 nM.

Q: For CC(=O)N[C@@H](CO)C(=O)N[C@@H](Cc1cncn1COCc1ccccc1)C(=O)N[C@@H](CC(C)C)C(=O)N[C@H](CCCNC(=N)N)C(=O)c1nc2ccccc2s1 [MM4036-1, N-[(R)-1-[(1,3-benzothiazol-2-yl)carbonyl]-4-guanidinobutyl](S)-2-[(S)-2-[(S)-2-acetylamino-3-hydroxypropionylamino]-3-{1-[(benzyloxy)methyl]-5-imidazolyl}propionylamino]-4-methylvaleramide], which IC50 [1] is on record?
A: The IC50 was 139 nM.

Q: What about the IC50 ([2]; read-out: Hepsin IC50) of the same compound?
A: Its IC50 is 1.47 nM.

Q: And the IC50 ([3]; read-out: HGFA IC50)?
A: Its IC50 is 1550 nM.

Q: What about the IC50 [4] of the same compound?
A: The IC50 was 102 nM.

Q: Which results are given for CC(=O)N[C@@H](CO)C(=O)N[C@@H](Cc1cncn1COCc1ccccc1)C(=O)N[C@@H](CC(C)C)C(=O)N[C@@H](CCCNC(=N)N)C(=O)c1nc2ccccc2s1 [MM4036-2, N-[(S)-1-[(1,3-benzothiazol-2-yl)carbonyl]-4-guanidinobutyl](S)-2-[(S)-2-[(S)-2-acetylamino-3-hydroxypropionylamino]-3-{1-[(benzyloxy)methyl]-5-imidazolyl}propionylamino]-4-methylvaleramide]?
A: IC50 [1]: 77.7 nM; IC50 ([2]; read-out: Hepsin IC50): 2.81 nM; IC50 ([3]; read-out: HGFA IC50): 1070 nM

Q: CCC(C)[C@H](NC(C)=O)C(=O)N[C@@H](CCC(=O)O)C(=O)N[C@@H](Cc1ccccc1)C(=O)N[C@@H](CCCNC(=N)N)C(=O)c1nc2ccccc2s1 (stereo partly drawn) [MM4037-2, (S)-4-[(2S)-2-acetylamino-3-methylvalerylamino]-4-[N-(S)-1-[N-(S)-1-[(1,3-benzothiazol-2-yl)carbonyl]-4-guanidinobutylcarbamoyl]-2-phenylethylcarbamoyl]butyric acid] was tested. Which IC50 [1] did it give?
A: Its IC50 is 2.42 nM.

Q: What about the IC50 ([2]; read-out: Hepsin IC50) of the same compound?
A: Its IC50 is 0.35 nM.

Q: And the IC50 ([3]; read-out: HGFA IC50)?
A: The IC50 was 276 nM.

Q: And the IC50 [4]?
A: The IC50 was 0.109 nM.

Q: CC(=O)N[C@@H](Cc1c[nH]c2ccccc12)C(=O)N[C@@H](Cc1ccccc1)C(=O)N[C@@H](CCCNC(=N)N)C(=O)c1nc2ccc(C(=O)O)cc2s1 [PK-1-103, 2-[(S)-2-[(S)-2-[(S)-2-acetylamino-3-(3-indolyl)propionylamino]-3-phenylpropionylamino]-5-guanidinovaleryl]-1,3-benzothiazole-6-carboxylic acid] was tested. Which IC50 ([1]; read-out: Matriptase IC50) did it give?
A: The IC50 was 49.1 nM.

Q: What about the IC50 ([2]; read-out: Hepsin IC50) of the same compound?
A: The IC50 was 2.08 nM.

Q: What about the IC50 ([3]; read-out: HGFA IC50) of the same compound?
A: The IC50 was 235 nM.

Q: And the IC50 [4]?
A: Its IC50 is 0.223 nM.

Q: With CC(=O)N[C@@H](Cc1c[nH]c2ccccc12)C(=O)N[C@@H](CC(C)C)C(=O)N[C@@H](CCCNC(=N)N)C(=O)c1nc2ccc(C(=O)O)cc2s1 [PK-1-105, 2-[(S)-2-[(S)-2-[(S)-2-acetylamino-3-(3-indolyl)propionylamino]-4-methylvalerylamino]-5-guanidinovaleryl]-1,3-benzothiazole-6-carboxylic acid] as the compound, how does the IC50 ([1]; read-out: Matriptase IC50) read?
A: The IC50 was 144 nM.

Q: And the IC50 ([2]; read-out: Hepsin IC50)?
A: The IC50 was 0.362 nM.

Q: What about the IC50 ([3]; read-out: HGFA IC50) of the same compound?
A: The IC50 was 98.3 nM.

Q: What about the IC50 [4] of the same compound?
A: The IC50 was 1.45 nM.

Q: Which IC50 [1] does the source give for CC(=O)N[C@H]1Cc2ccc(cc2)OCCCC[C@@H](C(=O)N[C@H](CCCNC(=N)N)C(=O)c2nc3ccccc3s2)NC(=O)[C@H](Cc2ccccc2)NC1=O [VD4111A, N-[(R)-1-[(1,3-benzothiazol-2-yl)carbonyl]-4-guanidinobutyl]-(7S,10S,13S)-13-acetylamino-10-benzyl-9,12-dioxo-2-oxa-8,11-diazabicyclo[13.2.2]nonadeca-1(17),15,18-triene-7-carboxamide] here?
A: Its IC50 is 330 nM.

Q: And the IC50 [2]?
A: The IC50 was 12.7 nM.

Q: And the IC50 [3]?
A: The IC50 was 3280 nM.

Q: Which results are given for CC(=O)N[C@H]1Cc2ccc(cc2)OCCCC[C@@H](C(=O)N[C@@H](CCCNC(=N)N)C(=O)c2nc3ccccc3s2)NC(=O)[C@@H](Cc2c[nH]c3ccccc23)NC1=O [VD4162B, N-[(S)-1-[(1,3-benzothiazol-2-yl)carbonyl]-4-guanidinobutyl]-(7S,10R,13S)-13-acetylamino-10-[(3-indolyl)methyl]-9,12-dioxo-2-oxa-8,11-diazabicyclo[13.2.2]nonadeca-1(17),15,18-triene-7-carboxamide]?
A: IC50 ([1]; 30 min incubation, Boc-QAR-AMC at Km, read-out: Matriptase IC50): 2.88 nM; IC50 ([2]; 30 min incubation, Boc-QAR-AMC at Km, read-out: Hepsin IC50): 0.538 nM; IC50 [3]: 3.35 nM; IC50 ([4]; 30 min incubation, Boc-QAR-AMC at Km): 4.75 nM

Q: With CC(=O)N[C@H]1Cc2ccc(cc2)Oc2cccc(c2)C[C@@H](C(=O)N[C@H](CCCNC(=N)N)C(=O)c2nc3ccccc3s2)NC(=O)[C@H](CC(C)C)NC1=O [VD5064A, N-{(R)-1-[(1,3-benzothiazol-2-yl)carbonyl]-4-guanidinobutyl}-(9S,12S,15S)-15-acetylamino-12-isobutyl-11,14-dioxo-2-oxa-10,13-diazatricyclo[15.2.2.1^3,^7]docosa-1(19),3,5,7(22),17,20-hexaene-9-carboxamide] as the compound, how does the IC50 [1] read?
A: Its IC50 is 680 nM.

Q: What about the IC50 ([2]; read-out: Hepsin IC50) of the same compound?
A: Its IC50 is 2.6 nM.

Q: And the IC50 ([3]; read-out: HGFA IC50)?
A: Its IC50 is 550 nM.

Q: What about the IC50 [4] of the same compound?
A: The IC50 was 261 nM.

Q: What does the source list for CC(=O)N[C@H]1Cc2ccc(cc2)Oc2ccc(cc2)C[C@@H](C(=O)N[C@H](CCCNC(=N)N)C(=O)c2nc3ccccc3s2)NC(=O)[C@H](CC(C)C)NC1=O [VD5076A, N-[(R)-1-[(1,3-benzothiazol-2-yl)carbonyl]-4-guanidinobutyl]-(8S,11S,14S)-14-acetylamino-11-isobutyl-10,13-dioxo-2-oxa-9,12-diazatricyclo[14.2.2.2^3,^6]docosa-1(18),3,5,16,19,21-hexaene-8-carboxamide]?
A: IC50 [1]: 2370 nM; IC50 ([2]; read-out: Hepsin IC50): 55.3 nM; IC50 ([3]; read-out: HGFA IC50): 2900 nM; IC50 [4]: 489 nM
